The record followed here is article PMC3914206.

Test [1] deals with T1, panel of 442 kinases (Homo sapiens, UniProt Q9UBE8).
T1 construct: purchased KINOMEscan
T1 sequence (Q9UBE8 1-527): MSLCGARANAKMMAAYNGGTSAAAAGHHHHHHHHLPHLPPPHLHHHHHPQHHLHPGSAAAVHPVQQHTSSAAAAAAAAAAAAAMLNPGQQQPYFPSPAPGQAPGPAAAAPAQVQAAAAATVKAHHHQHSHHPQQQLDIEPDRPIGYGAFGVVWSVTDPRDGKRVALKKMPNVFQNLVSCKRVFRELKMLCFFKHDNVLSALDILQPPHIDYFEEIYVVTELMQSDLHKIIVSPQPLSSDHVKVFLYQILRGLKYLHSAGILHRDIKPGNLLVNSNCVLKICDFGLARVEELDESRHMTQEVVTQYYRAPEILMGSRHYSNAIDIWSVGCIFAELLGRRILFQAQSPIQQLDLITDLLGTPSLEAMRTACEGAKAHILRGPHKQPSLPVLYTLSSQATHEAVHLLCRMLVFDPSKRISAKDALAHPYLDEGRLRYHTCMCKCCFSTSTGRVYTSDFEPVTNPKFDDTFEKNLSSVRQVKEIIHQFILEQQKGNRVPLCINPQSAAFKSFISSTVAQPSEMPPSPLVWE
It counts as binding. Conditions: Compound Concentration 10 µM. The text has this: (§1) We assessed the selectivity of members of this scaffold using the KINOMEscan methodology across a near comprehensive panel of 442 kinases [[18,27]].

The target in test [2] is T2, panel of 442 kinases (Homo sapiens, UniProt Q99759).
T2 construct: purchased KINOMEscan
T2 sequence (Q99759 1-626): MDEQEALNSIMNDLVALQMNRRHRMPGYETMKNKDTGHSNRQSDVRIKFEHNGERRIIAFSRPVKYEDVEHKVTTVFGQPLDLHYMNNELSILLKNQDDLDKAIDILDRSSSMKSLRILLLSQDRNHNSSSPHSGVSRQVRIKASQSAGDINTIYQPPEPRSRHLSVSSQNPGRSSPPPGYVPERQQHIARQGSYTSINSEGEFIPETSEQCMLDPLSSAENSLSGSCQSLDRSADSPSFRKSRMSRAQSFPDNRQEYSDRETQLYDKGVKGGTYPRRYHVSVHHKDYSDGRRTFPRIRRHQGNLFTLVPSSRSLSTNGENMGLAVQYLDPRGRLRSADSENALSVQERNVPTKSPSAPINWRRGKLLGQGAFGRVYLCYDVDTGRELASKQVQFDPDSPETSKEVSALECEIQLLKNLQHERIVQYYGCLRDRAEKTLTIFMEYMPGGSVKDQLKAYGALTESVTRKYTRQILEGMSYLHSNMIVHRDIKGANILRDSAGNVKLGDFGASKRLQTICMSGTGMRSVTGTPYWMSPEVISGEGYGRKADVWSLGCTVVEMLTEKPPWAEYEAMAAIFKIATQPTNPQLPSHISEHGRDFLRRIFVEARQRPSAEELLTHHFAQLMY
In kind it is binding. The note with it: Compound Concentration 10 µM.
Excerpt: as §1

For the compound `CCOc1cc(C(=O)N2CCC(N3CCN(C)CC3)CC2)ccc1Nc1ncc2c(n1)N(C1CCCC1)c1ccccc1C(=O)N2C` [Compound 26], the “KINOMEscan: NLK” value at panel of 442 kinases [1] was 78. The “KINOMEscan: MAP3K3” value at panel of 442 kinases [2] is on record as 100.

Take `COc1cc(C(=O)N2CCC(N3CCN(C)CC3)CC2)ccc1Nc1ncc2c(n1)N1CCc3cccc(c31)C(=O)N2C` [Compound 24]: the “KINOMEscan: NLK” value on panel of 442 kinases [1] amounted to 68. For the same compound, the “KINOMEscan: MAP3K3” value on panel of 442 kinases [2] amounted to 98.

Regarding `COc1cc(C(=O)N2CCC(N3CCN(C)CC3)CC2)ccc1Nc1ncc2c(n1)N(C)c1ccccc1C(=O)N2C` [15 (LRRK2-IN-1)], the “KINOMEscan: NLK” value at panel of 442 kinases [1] is on record as 50. Also, the “KINOMEscan: MAP3K3” value on panel of 442 kinases [2] is 97.

For the compound `COc1cc(C(=O)N2CCC(N3CCN(C)CC3)CC2)ccc1Nc1ncc2c(n1)N(C1CCCC1)c1ccccc1C(=O)N2C` [Compound 25, 11-cyclopentyl-2-((2-methoxy-4-(4-(4-methylpiperazin-1-yl)piperidine-1-carbonyl)phenyl)amino)-5-methyl-5H-benzo[e]pyrimido[5,4-b][1,4]diazepin-6(11H)-one], on panel of 442 kinases [1], the “KINOMEscan: NLK” value is reported as 63. For the same compound, the “KINOMEscan: MAP3K3” value on panel of 442 kinases [2] is recorded as 100.
